Results as given in ChEMBL document CHEMBL1151457, “Colistin heteroresistance in acinetobacter and its association with previous colistin therapy” (Antimicrob Agents Chemother, 2008).
Activity calls are given as the source filed them. The calls are words filed in the database; no cut-off is given here.

Columns and labels:
Assay type in all cases: functional, organism-based
Acinetobacter [1] = experiment: Antibacterial activity against heteroresistant Acinetobacter baumannii-calcoaceticus complex isolated from total cumulative patients preexposed to 325 to 900 mg of drug after 20 to 24 hrs by broth microdilution method
Acinetobacter [2] = experiment: Antibacterial activity against heteroresistant Acinetobacter baumannii-calcoaceticus complex isolated from total cumulative patients preexposed to 325 to 900 mg of drug at 4 ug/ml after 20 to 24 hrs by broth microdilution method
Acinetobacter [3] = experiment: Antibacterial activity against heteroresistant Acinetobacter baumannii-calcoaceticus complex isolated from total cumulative patients preexposed to 325 to 900 mg of drug assessed as colony forming unit at 8 ug/ml after 20 to 24 hrs by broth microdilution method
Acinetobacter [4] = experiment: Antimicrobial activity against susceptible-Acinetobacter baumannii-calcoaceticus complex isolated from patients after 20 to 24 hrs by broth microdilution method
Acinetobacter [5] = experiment: Antimicrobial activity against heteroresistant-Acinetobacter baumannii-calcoaceticus complex isolated from patients after 20 to 24 hrs by broth microdilution method
Acinetobacter [6] = experiment: Antibacterial activity against heteroresistant Acinetobacter baumannii-calcoaceticus complex isolated from total cumulative patients preexposed to 325 to 900 mg of drug at 2 ug/ml after 20 to 24 hrs by broth microdilution method
Acinetobacter [7] = experiment: Antibacterial activity against heteroresistant Acinetobacter baumannii-calcoaceticus complex isolated from total cumulative patients preexposed to 325 to 900 mg of drug measured after two passages with 8 ug/ml of drug on sheep blood plates by broth microdilution method
Acinetobacter [8] = experiment: Antibacterial activity against Acinetobacter baumannii-calcoaceticus complex assessed as colony forming unit at 8 ug/ml after 20 to 24 hrs by broth microdilution method

| Compound | Activity (Acinetobacter [1]) | Activity (Acinetobacter [2]) | Activity (Acinetobacter [3]) | MIC (Acinetobacter [4]) | MIC (Acinetobacter [5]) | Activity (Acinetobacter [6]) | MIC (Acinetobacter [7]) | Activity (Acinetobacter [8]) |
| --- | --- | --- | --- | --- | --- | --- | --- | --- |
| CC1(C)[C@H](C(=O)O)N2C(=O)C[C@H]2S1(=O)=O | Active |  |  |  |  |  |  |  |
| COLISTIN |  | inactive | 0.000211% | < 1 µg/mL | > 8 µg/mL | inactive | > 16 µg/mL | 5.3e-05% |
| GENTAMICIN | Active |  |  |  |  |  |  |  |
